{"source": "patent US20110236921A1", "about": "“CELL SYSTEM” (GE HEALTHCARE UK LIMITED, priority 2010, published 2011)", "key": {"WM115-Glu cells": {"system": "WM115-Glu cells", "experiment": "live-cell validation, cell viability (cell number) by nuclear-channel imaging, glycolytic cell line", "format": "cell-based, human", "details": "WM115-Glu (glucose-rich medium), 384-well live-cell plate, tested at 10.0 μM; live cells visible over full concentration range", "protocol": "(§1) Live cells are clearly visible in the full concentration range for WM115-Glu cells, but not for WM115-Gal cells (low cell density in 0.1 μM→10.0 μM antimycin A). FIG. 4b is a graphical representation of the same data.\n(§2) Antimycin A acts on respiration […] of the electron transport chain. Glucose-deprived cells (WM115-Gal) are dependent on mitochondrial respiration for ATP, and are therefore sensitive to antimycin A. In contrast, the WM115-Glu cells grown in glucose-rich media are reliant on glycolysis for ATP generation and as predicted, these cells appear resistant to antimycin A."}, "WM115-Gal cells": {"system": "WM115-Gal cells", "experiment": "live-cell validation, cell viability (cell number) by nuclear-channel imaging, respiring cell line", "format": "cell-based, human", "details": "WM115-Gal (glucose-free galactose medium), 384-well live-cell plate; as low as 0.1 μM; low cell density at 0.1 μM→10.0 μM", "protocol": "as §1, §2"}}}
{"substance": "antimycin A", "values": [{"measurement": "sensitivity of cells to drug (live cells visible / cell number)", "setting": "WM115-Glu cells", "result": "resistant"}, {"measurement": "sensitivity of cells to drug (live cells visible / cell number)", "setting": "WM115-Gal cells", "result": "susceptible"}]}
